Reference: US20240239861A1, “GLUCAGON-RECEPTOR SELECTIVE POLYPEPTIDES AND METHODS OF USE THEREOF” (i2O Therapeutics, Inc., priority 2016, published 2024)
“Also recorded” adds a separate entry of the source. Where two headings read alike, the source gives them in different places. Where a SMILES comes first, the peptide text is derived from it. Bridges are numbered along the chain shown (N, C = ends).

Tests used:
[1] = Solubility in water or saline at room temperature, visual inspection; format: physicochemical
Source text: Samples were visually inspected for clarity of the sample, any appearance of turbidity or haziness.

[2] = Steady state plasma concentrations of glucagon analogs given subcutaneously by osmotic minipump; format: in vivo, rat
[3] = 3-hour intravenous infusion pharmacokinetics, peptide clearance (CL); details: male, rat, in vivo
Experimental: Peptides were formulated in sterile saline and administered as a 3-hour intravenous infusion to non-fasted male Wistar Han or Sprague-Dawley rats (n=3 per group) via jugular vein cannula at a final dose of 0.3 or 0.1 mg/kg. […] Plasma was prepared by centrifugation and stored at −80° C. until analysis.
(§1) Protein Precipitation: All 96-well plates were coated with a blocking agent to mitigate non-specific binding of peptides. Plasma samples (75 uL) were added to a 96-well plate containing 200 uL of 2:1 ethanol:acetonitrile containing 0.1% TFA and mixed well via aspiration. Plates were capped, vortex-mixed and centrifuged. Supernatants (215 uL) were transferred to a clean 96-well plate, evaporated to dryness under nitrogen flow and then reconstituted in 75 μL of 20% acetonitrile in water containing 0.10% formic acid.
Solid-Phase Extraction: Samples were diluted 3-fold with 5% NH4OH (aq) and loaded onto an Oasis MAX microElution plate (Waters Corp, Milford, MA) that had been pre-conditioned with 200 uL each of methanol and 5% NH4OH (aq). The plate was washed with 200 uL 5% NH4OH (aq), followed by 200 uL 20% acetonitrile in water. […] Samples were reconstituted in 80 uL 0.1% formic acid in water.
All calibration standards were prepared in control rat plasma containing K2EDTA and protease inhibitor cocktail. […] Samples were injected onto a 2.1×50 mm reverse phase C18 analytical column, typically a Waters ACQUITY UPLC™ HSS T3, 1.8 μm (Waters Corporation, Milford, MA) or similar. […] Typical flow rates were 600 L/min. The column temperature was held constant at 40 or 45° C. Peptides were quantified my monitoring one or more product ions produced from a multiply charged parent ion.

[4] = Stability in water or saline at 37° C. and room temperature, 30 days, LC/MS and HPLC purity; format: physicochemical
Source text: Samples were withdrawn at a regular interval for 30 days and analyzed by LC/MS and HPLC for determination of purity and mass of the degradation product.

human GCGR = human GCGR (Homo sapiens, UniProt P47871); experiment: Peptide-receptor mediated cAMP accumulation (LANCE Ultra cAMP) in CHO-K1 cells transfected with human GCGR; format: cell-based
Chain of human GCGR (P47871 26-477): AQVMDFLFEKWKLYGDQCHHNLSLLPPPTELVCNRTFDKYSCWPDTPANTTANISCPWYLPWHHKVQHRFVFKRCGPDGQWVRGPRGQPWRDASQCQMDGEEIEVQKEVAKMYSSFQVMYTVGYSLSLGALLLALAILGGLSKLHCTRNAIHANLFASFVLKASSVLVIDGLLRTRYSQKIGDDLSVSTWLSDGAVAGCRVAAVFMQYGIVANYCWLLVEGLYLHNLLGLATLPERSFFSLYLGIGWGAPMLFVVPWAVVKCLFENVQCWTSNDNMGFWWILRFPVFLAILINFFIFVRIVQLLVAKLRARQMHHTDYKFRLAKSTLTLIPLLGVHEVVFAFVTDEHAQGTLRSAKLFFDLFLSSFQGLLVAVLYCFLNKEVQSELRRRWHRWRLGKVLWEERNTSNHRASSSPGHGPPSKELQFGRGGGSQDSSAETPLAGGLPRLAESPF

[5] = Clearance at intravenous infusion rate of 10 mcg/kg/hr
[6] = Body weight change in DIO Long Evans rats after 13 days continuous dosing by osmotic pump; details: for weight loss compared to vehicle control after 13 days: DIO LE rats, single agent; for ED50 of weight loss: DIO rats, 13 days infusion, fits sharing vehicle response and common maximum (FIG. 9); for common maximal weight loss response: over 13 days, fits constrained to share it (FIG. 9)
Experimental: Rats were 15-17 weeks old at the start of the study. The rats were housed 1 per cage and given ad libitum access to high fat diet (Harlan TD.95217, 4.3 kcal/g) and water, maintained on a 12 hr light/dark cycle from 5:00 AM to 5:00 PM at 21° C. and 50% relative humidity and allowed to acclimate for at least 10 days prior to the surgeries. Baseline fat mass and non-fat mass measurements were taken 3 days before the start of peptide infusion using a QMR instrument (Echo Medical Systems, Houston, TX). Body weight measurements were taken 2 times/week starting three days before the surgery. Rats were randomized according to their percent body fat mass and/or body weight into the various treatment groups (n=4-6 rats/group). […] On the day of surgery, rats were anesthetized under isoflurane and the dorsal skin surface was shaved and cleansed. Rats were injected SC with Flunexin (2.5 mg/kg). A 1-2 cm surgical incision was made between the scapulae. Using blunt dissection, a 2-3 cm subcutaneous tunnel was created into which the sterile, filled, mini-osmotic pump was introduced. The skin opening was closed with a skin staple. Each rat was implanted with either one or two osmotic pumps containing vehicle or peptide according to their treatment group. All the data are presented as mean±SEM. The data were analyzed in Excel and/or Prism (GraphPad Software, Inc., La Jolla, CA) using one-way ANOVA to compare each group to the appropriate control group.

human GLP-1R = human GLP-1R (Homo sapiens, UniProt P43220); experiment: Peptide-receptor mediated cAMP accumulation (LANCE Ultra cAMP) in CHO-K1 cells transfected with human GLP-1R; format: cell-based
Chain of human GLP-1R (P43220 24-463): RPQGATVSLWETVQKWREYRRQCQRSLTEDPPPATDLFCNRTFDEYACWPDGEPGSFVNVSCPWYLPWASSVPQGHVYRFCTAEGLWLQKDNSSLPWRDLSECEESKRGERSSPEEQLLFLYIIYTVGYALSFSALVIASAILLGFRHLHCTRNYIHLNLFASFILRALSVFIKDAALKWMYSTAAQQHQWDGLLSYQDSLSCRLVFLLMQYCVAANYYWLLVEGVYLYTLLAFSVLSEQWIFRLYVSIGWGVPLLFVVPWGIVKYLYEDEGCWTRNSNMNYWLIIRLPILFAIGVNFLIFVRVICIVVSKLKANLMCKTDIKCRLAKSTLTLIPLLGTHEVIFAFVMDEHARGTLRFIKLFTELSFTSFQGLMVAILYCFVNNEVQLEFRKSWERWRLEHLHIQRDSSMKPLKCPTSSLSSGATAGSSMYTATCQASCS

in vivo = details: rat, iv
[7] = rat, in vivo
[8] = Intravenous bolus injection pharmacokinetics, clearance (CL), cyclic peptide glucagon analogs; details: rat, in vivo; male Wistar Han rats, single iv bolus 0.1 mg/kg; read-out: IV Bolus Clearance Kidney (CL)
Experimental: Peptides were administered as a single intravenous bolus dose to non-fasted male Wistar Han rats (n=3 per group) via jugular vein cannula. Compounds were formulated as solutions in either sterile saline, acidified saline (pH 2.0 or 4.5), or 5% DMSO in water and administered at a volume of 1.5 mL/kg and a final dose of 0.1 mg/kg. […] Plasma was prepared by centrifugation and stored at −80° C. until analysis.
as §1
Solid-Phase Extraction: Samples were diluted 3-fold with 5% NH4OH (aq) and loaded onto an Oasis MAX microElution plate (Waters Corp, Milford, MA) that had been pre-conditioned with 200 uL each of methanol and 5% NH4OH (aq). […]
All calibration standards were prepared in control rat plasma containing K2EDTA and protease inhibitor cocktail. […] Peptides were quantified my monitoring one or more product ions produced from a multiply charged parent ion.

[9] = rat, in vivo, iv
Experimental: Animals were anesthetized with halothane during catheterization of right saphenous vein (for peptide infusions) and right femoral artery (for blood sampling and monitoring of arterial pressure). Colonic temperature was measured and controlled. […] Arterial samples were collected every 30 min into heparinized Natelson capillaries, the plasma separated on a bench-top centrifuge and then frozen at −20° C. until assay.

[10] = hGLP1 pEC50 (cAMP mean (n = 3): 11 point curve starting at 1 nM, Table 3)
[11] = hGLP1 pEC50 (cAMP) mean (n = 9): 11 point curve starting at 500 uM, Table 2A

Which results are given for `CC(C)C[C@H](NC(=O)[C@H](Cc1ccc(O)cc1)NC(=O)[C@H](CCCCN)NC(=O)[C@H](CO)NC(=O)[C@H](Cc1ccc(O)cc1)NC(=O)[C@H](CC(=O)O)NC(=O)[C@H](CO)NC(=O)[C@@H](NC(=O)[C@H](Cc1ccccc1)NC(=O)[C@@H](NC(=O)CNC(=O)[C@H](Cc1c[nH]cn1)NC(=O)[C@H](CO)NC(=O)[C@@H](N)Cc1ccc(O)cc1)[C@@H](C)O)[C@@H](C)O)C(=O)N[C@@H](CC(=O)O)C(=O)NC(C)(C)C(=O)N[C@@H](CCCCN)C(=O)N[C@@H](CO)C(=O)N[C@@H](C)C(=O)N[C@@H](CCC(N)=O)C(=O)N[C@@H](CCC(=O)O)C(=O)N[C@@H](Cc1ccccc1)C(=O)N[C@H](C(=O)NC(C)(C)C(=O)N[C@@H](Cc1c[nH]c2ccccc12)C(=O)N[C@@H](CC(C)C)C(=O)N[C@@H](CCC(=O)O)C(=O)N[C@@H](CC(=O)O)C(=O)N[C@@H](CCC(=O)O)C(=O)N1CCC[C@H]1C(=O)N[C@@H](CO)C(=O)N[C@@H](CO)C(=O)NCC(=O)N[C@@H](C)C(=O)N1CCC[C@H]1C(=O)N1CCC[C@H]1C(=O)N1CCC[C@H]1C(=O)N[C@@H](CO)C(=O)O)C(C)C` [Compound A2]?
solubility ([1]; Table 3, room temperature, read-out: Solubility in water): > 200 mg/mL; mode of clearance ([2]; FIG. 6, steady state plasma concentration vs inulin/GFR): consistent with being via glomerular filtration; also recorded: cleared mainly by glomerular filtration; subcutaneous bioavailability ([2]; sc osmotic minipump, rat): high; clearance [3]: 10.8 mL/min/kg; Stability 1 mg/ml in water at 37 degC ([4]; Table 3, % printed only in cells of A1-A6): >84%; EC50 (human GCGR): 0.002 nM; activation profile at the human glucagon receptor (GCGR) (human GCGR; FIG. 1A): nearly equipotent on GCGR; hGCGR pEC50 (cAMP mean (n = 3): 11 point curve starting at 1 nM) (human GCGR; Table 3): 11.7; clearance compared with exenatide and glucagon ([5]; FIG. 7): less than that of exenatide and glucagon; mode of clearance ([5]; FIG. 7, Table 5 values close to GFR): cleared from plasma via glomerular filtration; CL ([5]; Table 5, intravenous infusion rate 10 mcg/kg/hr, rat): 11.3 mL/min/kg; clearance ([5]; rat, in vivo, iv, 10 mcg/kg/hr, CL mL/min/kg, Table 5, intravenous infusion rate 10 mcg/kg/hr): 10.8 mL/min/kg; weight loss compared to vehicle control after 13 days ([6]; 0.01 mg/kg/day): 3.7%; weight loss compared to vehicle control after 13 days ([6]; 0.03 mg/kg/day): 3.9%; weight loss compared to vehicle control after 13 days ([6]; 0.1 mg/kg/day): 8.6%; weight loss compared to vehicle control after 13 days ([6]; 0.3 mg/kg/day): 23.7%; ED50 of weight loss [6]: 271 µg/kg/day; common maximal weight loss response [6]: 27.2%; CL (FIGURE 2B): 12.3 ± 0.6 mL/min/kg; activation profile at the human GLP-1 receptor (GLP-1R) (human GLP-1R; FIG. 1B): inactive on GLP-1R; EC50 (human GLP-1R; [10]): 3980 nM; EC50 (human GLP-1R; [11]): 3980 nM

For `CC(C)C[C@H](NC(=O)[C@H](Cc1ccc(O)cc1)NC(=O)[C@H](CCCCN)NC(=O)[C@H](CO)NC(=O)[C@H](Cc1ccc(O)cc1)NC(=O)[C@H](CC(=O)O)NC(=O)[C@H](CO)NC(=O)[C@@H](NC(=O)[C@H](Cc1ccccc1)NC(=O)[C@@H](NC(=O)CNC(=O)[C@H](CCC(N)=O)NC(=O)[C@H](CO)NC(=O)[C@@H](N)Cc1ccc(O)cc1)[C@@H](C)O)[C@@H](C)O)C(=O)N[C@@H](CC(=O)O)C(=O)N[C@@H](C)C(=O)N[C@@H](C)C(=O)N[C@@H](CCCNC(=N)N)C(=O)N[C@@H](C)C(=O)N[C@@H](CCC(N)=O)C(=O)N[C@@H](CCC(=O)O)C(=O)N[C@@H](Cc1ccccc1)C(=O)N[C@H](C(=O)N[C@@H](CCCCN)C(=O)N[C@@H](Cc1c[nH]c2ccccc12)C(=O)N[C@@H](CC(C)C)C(=O)N[C@@H](CCC(=O)O)C(=O)N[C@@H](CC(=O)O)C(=O)N[C@@H](CCC(=O)O)C(=O)N1CCC[C@H]1C(=O)N[C@@H](CCCCN)C(=O)N[C@@H](CO)C(=O)N[C@@H](CCCCN)C(=O)N[C@@H](CO)C(=O)N1CCC[C@H]1C(=O)N1CCC[C@H]1C(=O)N1CCC[C@H]1C(=O)N[C@@H](CO)C(N)=O)C(C)C` [Compound A3] (H-YSQGTFTSDYSKYLDAARAQEFVKWLEDEPKSKSPPPS-NH2; N-terminus assumed), which clearance (in vivo) is on record?
The clearance was 10.7 mL/min/kg.

What about the solubility ([1]; Solubility in water mg/ml) of the same molecule?
Its solubility is greater than 200 mg/mL.

And the “Stability 1 mg/ml in water at 37 degC” value [4]?
The value was greater than 64%.

And the “ED50 of weight loss” value [6]?
The value was 535 µg/kg/day.

What about the “common maximal weight loss response” value [6] of the same molecule?
Its value is 27.2%.

What about the “CL” value (FIGURE 2B) of the same molecule?
The value was 12.5 ± 1.6 mL/min/kg.

And the EC50 (human GLP-1R; [10])?
The EC50 was 200 nM.

What about the EC50 (human GLP-1R; [11]) of the same molecule?
The EC50 was 200 nM.

And the mode of clearance [7]?
The mode of clearance was “cleared from plasma via glomerular filtration”.

For `CC(C)C[C@H](NC(=O)[C@H](Cc1ccc(O)cc1)NC(=O)[C@H](CCCCN)NC(=O)[C@H](CO)NC(=O)[C@H](Cc1ccc(O)cc1)NC(=O)[C@H](CC(=O)O)NC(=O)[C@H](CO)NC(=O)[C@@H](NC(=O)[C@H](Cc1ccccc1)NC(=O)[C@@H](NC(=O)CNC(=O)[C@H](CCC(N)=O)NC(=O)[C@H](CO)NC(=O)[C@@H](N)Cc1ccc(O)cc1)[C@@H](C)O)[C@@H](C)O)C(=O)N[C@@H](CC(=O)O)C(=O)N[C@@H](CO)C(=O)N[C@H]1CCCCNC(=O)CC[C@@H](C(=O)N[C@@H](Cc2ccccc2)C(=O)N[C@H](C(=O)N[C@H]2CCCCNC(=O)CC[C@@H](C(=O)N[C@H](C(=O)O)[C@@H](C)O)NC(=O)[C@H](CC(=O)O)NC(=O)[C@H](CC(C)C)NC(=O)[C@H](Cc3c[nH]c4ccccc34)NC2=O)C(C)C)NC(=O)[C@H](CCC(N)=O)NC(=O)[C@H](C)NC(=O)[C@H](CCCNC(=N)N)NC1=O` [Compound A104] (H-YSQGTFTSDYSKYLDSKRAQEFVKWLDET-OH; lactam 17-21, 24-28), which clearance [8] is on record?
The clearance was 80.7 ± 15.4 mL/min/kg.

For `CC(C)C[C@H](NC(=O)[C@H](Cc1ccc(O)cc1)NC(=O)[C@H](CCCCN)NC(=O)[C@H](CO)NC(=O)[C@H](Cc1ccc(O)cc1)NC(=O)[C@H](CC(=O)O)NC(=O)[C@H](CO)NC(=O)[C@@H](NC(=O)[C@H](Cc1ccccc1)NC(=O)[C@@H](NC(=O)CNC(=O)[C@H](CCC(N)=O)NC(=O)[C@H](CO)NC(=O)[C@@H](N)Cc1ccc(O)cc1)[C@@H](C)O)[C@@H](C)O)C(=O)N[C@@H](CC(=O)O)C(=O)N[C@@H](CO)C(=O)N[C@H]1CCCCNC(=O)CC[C@@H](C(=O)N[C@@H](Cc2ccccc2)C(=O)N[C@H](C(=O)N[C@H]2CCCCNC(=O)CC[C@@H](C(=O)N[C@H](C(=O)O)[C@@H](C)O)NC(=O)[C@H](CCC(N)=O)NC(=O)[C@H](CC(C)C)NC(=O)[C@H](Cc3c[nH]c4ccccc34)NC2=O)C(C)C)NC(=O)[C@H](CCC(N)=O)NC(=O)[C@H](C)NC(=O)[C@H](CCCNC(=N)N)NC1=O` [Compound A105] (H-YSQGTFTSDYSKYLDSKRAQEFVKWLQET-OH; lactam 17-21, 24-28), which clearance [8] is on record?
Its clearance is 67 ± 7.3 mL/min/kg.

For “GLP-1: glucagon-like peptide-1; infused as GLP-1-(7-36)amide in Example 13”, which Plasma clearance rates [9] is on record?
Its Plasma clearance rates is 34±4 to 38±3.
